From patent publication US10683121B2, “Method for preparation of research organisms” (BIOSYSTEMS TECHNOLOGY LIMITED, priority 2015, dated 2020)
Read-outs that look alike come from different tables or passages of the source.

Legend:
[1] = test system: culturable microorganisms on the surface of G. mellonella larvae; experiment: Measurement of surface contamination of larvae after alcohol decontamination (PBS wash plated on LB agar); type: cell-based; conditions: for percentage reduction in surface contaminants compared to control: n=10 (FIG. 1)
Protocol: Individual G. mellonella larva from groups of 10 were immersed thrice into 1 ml of PBS using sterilised forceps. The PBS wash was serially diluted, plated onto Luria Broth (LB) agar and incubated at 37° C. for 24 h. Any colonies of organisms visible after this period were counted. They may optionally be identified to species level, for example by use of 16S RNA sequencing. Ethanol was diluted with sterile water to 70% or 50% (v/v). We tested two different decontamination techniques. […] To assess the microbial flora after decontamination, we used the PBS washing method outlined above. Using the “bath” method, different lengths of time for decontamination were tested. […] The PBS was plated on LB agar; plates and G. mellonella larvae were incubated at 37° C. for 24 h. The health of larvae was monitored and contaminants on the plates counted. Further concentrations and decontamination treatment periods were studied. In each case, ten Galleria larvae were used, placed into a sterile mesh tray and immersed using the “dip” method into isopropyl alcohol, methanol or ethanol, prepared to varying concentrations by dilution with sterile water as described above. The treatment conditions were: Larvae were patted dry on paper towel and grasped with sterile forceps dip larvae individually into PBS three times, for measurement of surface contamination as described above.

[2] = test system: G. mellonella larvae; conditions: in vivo
Protocol: The larvae were used within two weeks of arrival. […] Larvae in a weight range between 0.2-0.3 g and light cream in colour were selected for experiments. […] The injection was performed into the right foreleg.
Using the “bath” method, different lengths of time for decontamination were tested. Using sterile tweezers each larvae was rolled in 20 ml of 50% ethanol for 10 s, 20 s, 30 s or 60 s, patted dry with blue roll and dipped in sterile PBS. The PBS was plated on LB agar; plates and G. mellonella larvae were incubated at 37° C. for 24 h. The health of larvae was monitored and contaminants on the plates counted.
Further concentrations and decontamination treatment periods were studied. In each case, ten Galleria larvae were used, placed into a sterile mesh tray and immersed using the “dip” method into isopropyl alcohol, methanol or ethanol, prepared to varying concentrations by dilution with sterile water as described above. The treatment conditions were:
These contaminants can be introduced into the larva haemolymph through the injection point when challenging larvae. We believe that the deaths we have seen in past experiments in control groups challenged with PBS was a consequence of the introduction of this microbial flora into the body cavity of the larvae. Deaths in control groups can make the interpretation of results from test groups difficult. Therefore, the plan in this study was to identify a way of surface decontaminating the larvae, so that deaths in control groups were avoided, and therefore improving the quality of the data obtained from experiments using G. mellonella larvae. Galleria larvae are scored as dead when there is no movement when gently probed with a pipette tip. Colour is also an indicator of a response to infection or injury as such larvae produce melanin which creates a colour change of cream to pale or dark brown (4).

[3] = test system: G. mellonella larvae; conditions: single 20 s bath exposure to 50% (v/v), 24 hours
Protocol: Final instar G. mellonella larvae were obtained from Live Foods UK and kept on woodchip at 15° C. until use. The larvae were used within two weeks of arrival. The Galleria larvae were screened for colour, weight and size before use. Larvae in a weight range between 0.2-0.3 g and light cream in colour were selected for experiments. Injections were carried out using a Hamilton syringe with 5 μl dispenser; 10 μl of inoculum was used per larva in each injection. The injection was performed into the right foreleg. Phosphate Buffer Saline (PBS, pH 7.2) was used as a control inoculum as it should not kill or harm the larvae.
We injected larvae with PBS before or after decontamination. […] For the second group, only 10 μl PBS was injected into the right foreleg, with no preliminary decontamination. All larvae were placed into an incubator at 37° C. for 24 h and monitored for health and survival.
Finally, we investigated whether decontamination of the larvae improved the survival of larvae which were subsequently injected with PBS. […] These larvae were dried and then injected 10 μl PBS into the right foreleg. The larvae were placed at 37° C. and survival recorded over the next 24 hours.

**Q.** Which “% reduction in microbial surface contamination” value (shortened to “% reduction”) ([1]; 50%, 20 s immersion (dip)) does the source give for `CC(C)O` [Isopropyl alcohol, isopropanol] here?
**A.** 99.9%

**Q.** What about the “% reduction” value ([1]; 50%, 40 s immersion (dip)) of the same compound?
**A.** 99.9%

**Q.** And the “% reduction” value ([1]; 70%, 20 s immersion (dip))?
**A.** 99.9%

**Q.** What about the “% reduction” value ([1]; 70%, 40 s immersion (dip)) of the same compound?
**A.** 99.8%

**Q.** How did the “% reduction” value ([1]; 40%, 20 s immersion (dip)) turn out when `CCO` [Ethanol, ethanol] was run?
**A.** 95.7%

**Q.** And the “% reduction” value ([1]; 40%, 40 s immersion (dip))?
**A.** 99.2%

**Q.** And the “percentage reduction in surface contaminants compared to control” value (shortened to “percentage reduction”) ([1]; 50% ethanol, bath technique)?
**A.** 99.99%

**Q.** And the “percentage reduction” value ([1]; 50% ethanol, dip technique)?
**A.** 99.99%

**Q.** What about the “% reduction” value ([1]; 50%, 20 s immersion (dip)) of the same compound?
**A.** 99.0%

**Q.** What about the “% reduction” value ([1]; 50%, 40 s immersion (dip)) of the same compound?
**A.** 98.9%

**Q.** And the “% reduction” value ([1]; 50%, 50 s immersion (dip))?
**A.** 99.4%

**Q.** And the “% reduction” value ([1]; 60%, 20 s immersion (dip))?
**A.** 98.4%

**Q.** What about the “% reduction” value ([1]; 60%, 40 s immersion (dip)) of the same compound?
**A.** 99.1%

**Q.** And the “percentage reduction” value ([1]; 70% ethanol, bath technique)?
**A.** 99.98%

**Q.** What about the “percentage reduction” value ([1]; 70% ethanol, dip technique) of the same compound?
**A.** 99.52%

**Q.** And the “larval survival 24 hrs” value ([2]; Galleria mellonella, 40 %)?
**A.** 10/10

**Q.** And the “larval survival 24 hrs” value ([2]; Galleria mellonella, 50 %)?
**A.** 10/10

**Q.** And the “larval survival 24 hrs” value ([2]; Galleria mellonella, 60 %)?
**A.** 10/10

**Q.** And the “larval survival 48 hrs” value ([2]; Galleria mellonella, 48 h, 40 %)?
**A.** 10/10

**Q.** And the “larval survival 48 hrs” value ([2]; Galleria mellonella, 48 h, 50 %)?
**A.** 10/10

**Q.** And the “Observations at 48 h (death)” value ([2]; Galleria mellonella, 48 h, 50 % (v/v))?
**A.** 15% death

**Q.** And the “larval survival 72 hrs” value ([2]; Galleria mellonella, 40 %)?
**A.** 10/10

**Q.** What about the “larval survival 72 hrs” value ([2]; Galleria mellonella, 50 %) of the same compound?
**A.** 10/10

**Q.** And the “Observations at 48 h” value [2]?
**A.** No death or pigment change

**Q.** And the “groups of larvae with 100% survival after PBS injection” value ([3]; 10 μl PBS into right foreleg, 37° C., groups of 10)?
**A.** 19/20

**Q.** What about the “reduction in deaths versus un-decontaminated larvae injected with PBS” value ([3]; PBS injection) of the same compound?
**A.** 83%

**Q.** Which “% reduction” value ([1]; 50%, 20 s immersion (dip)) does the source give for `CO` [Methanol, methanol] here?
**A.** 99.0%

**Q.** And the “% reduction” value ([1]; 50%, 40 s immersion (dip))?
**A.** 99.7%

**Q.** What about the “% reduction” value ([1]; 70%, 20 s immersion (dip)) of the same compound?
**A.** 99.9%

**Q.** And the “% reduction” value ([1]; 70%, 40 s immersion (dip))?
**A.** 99.9%
